Laboratory results published in patent US8440830B2, “Tetrahydro-fused pyridines as histone deacetylase inhibitors” (4SC AG, priority 2007, dated 2013).
Read-outs that look alike come from different tables or passages of the source.

Tests used:
Format in all cases: cell-based
[1] = test system: histone H3 hyperacetylation in HeLa cervical carcinoma cells; assay: Cellular histone H3 hyperacetylation assay; conditions: Homo sapiens, 24 h treatment
Procedure, shortened: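 HeLa cells treated with compound for 24 h, then fixed, permeabilized and immunostained for acetylated histone H3 (K1-20) with an Alexa Fluor 488 secondary. High-content imaging scored the percentage of cells with nuclear fluorescence; EC50 from concentration-effect curves by non-linear regression.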

[2] = test system: fully transformed malignant cancer cell lines; assay: Anti-proliferative activity, selection of cell lines (Alamar Blue); conditions: Homo sapiens, 72 h, mean over cell lines, read-out: Mean IC50 values as calculated for fully malignant cancer cell lines
Experimental: (§1) The anti-proliferative activity of the histone deacetylase inhibitory compounds as described herein, is evaluated using the following cell lines: HeLa and HeLa-KB (cervical carcinoma), H460 (non small cell lung cancer), A549 (non-small cell lung cancer), MCF7 (breast carcinoma), MCF10A (normal, non tumorigenic breast epithelial), MDA-MB468 (breast carcinoma), MDA-MB435 (breast carcinoma), MDA-MB231 (breast carcinoma), SKBR-3 (breast carcinoma), SKOV-3 (ovarial carcinoma), A-2780 (ovarial carcinoma), RKO (colon carcinoma), HCT-15 (colon carcinoma), HCT-116 (colon carcinoma), PC3 (prostate carcinoma), BPH1 (benign prostate hyperplasia), AsPC1 (pancreatic carcinoma), Ca127 (tongue carcinoma), A-431 (vulva carcinoma), Hec1A (endometrial carcinoma), Saos-2 (osteosarcoma), U87MG (glioblastoma), WM266-4 (melanoma), K562 (chronic myeloid leukemia), EOL1 (acute hypereosinophilic myeloid leukemia), CCRF-CEM and CCRF-CEM VCR1000 (acute lymphoblastic leukemia sensitive and resistant towards Vincristine). For quantification of cellular proliferation/living cells the Alamar Blue (Resazurin) cell viability assay is applied (O'Brien et al. Eur J Biochem 267, 5421-5426, 2000). In this assay Resazurin is reduced to the fluorescent resorufine by cellular dehydrogenase activity, correlating with viable, proliferating cells. The examples are dissolved as 20 mM solutions in dimethylsulfoxide (DMSO) and subsequently diluted in semi-logarithmic steps. Cell lines are seeded at respective density into 96 well flat bottom plates in a volume of 200 μl per well. 24 h after seeding 1 μl each of the compound dilutions are added into each well of the 96 well plate. Each compound dilution is tested as quadruplicates. Wells containing untreated control cells are filled with 200 μl DMEM medium containing 0.5% v:v DMSO. The cells are then incubated with the compounds for 72 h at 37° C. in a humidified atmosphere containing 5% carbon dioxide. To determine the viability of the cells, 20 μl of a Resazurin solution (Sigma; 90 mg/l) are added. After 4 h incubation at 37° C. the fluorescence is measured at an extinction of λ=544 nm and an emission of λ=590 nm. For the calculation of the cell viability the emission value from untreated cells is set as 100% viability and the emission rates of treated cells are set in relation to the values of untreated cells. Viabilities are expressed as % values. The corresponding IC50 values of the compounds for cytotoxic activity are determined from the concentration-effect curves by means of non-linear regression.
The anti-proliferative activity of compounds from examples 1, 2, 3, 12 and 150 is evaluated by using a broad selection of non-malignant cell lines and fully transformed malignant cancer cell lines.

[3] = test system: RKO colon carcinoma cells with conditional p21^waf1 expression; assay: Cell cycle dependent cytotoxicity, RKO exop21 cell system; conditions: Homo sapiens, 72 h
Experimental: as §1
For determination of cell-cycle dependent cytotoxicity, the RKO exop21 cell system is applied (Schmidt et al. Oncogene 19: 2423-2429, 2000). Briefly, RKO cells with/without p21^waf1 expression (2×10^4 cells/well induced, 6×10^3 cells/well not induced) are treated with the compounds for 72 h and metabolic activity quantified as described before. The expression of p21^waf1 was induced by treatment with Pronasterone A, causing a complete proliferation arrest of RKO cells in the G1 and G2 phases of the cell division cycle.

[4] = read-out: EC50, induction of histone H3 hyperacetylation
[5] = read-out: −lg EC50, induction of histone H3 hyperacetylation
[6] = RKO arrested, p21^waf1 expressed, read-out: RKO arrested (p21^waf1 expressed) IC50
[7] = RKO proliferating, p21^waf1 not induced, read-out: RKO proliferating IC50

EC50 [1, 4] | EC50 [1, 5] | IC50 [2] | SMILES | IC50 [3, 6] | IC50 [3, 7]
0.15 to 15 µM | 0.251 to 15.8 µM | 2.4 to 5.4 µM | Nc1ccccc1NC(=O)c1nc2c(s1)CN(C(=O)Nc1ccc(-c3ccccc3)cc1)CC2 [Example 1, N^2-(2-aminophenyl)-N5-biphenyl-4-yl-6,7-dihydro[1,3]thiazolo[5,4-c]pyridine-2,5(4H)-dicarboxamide] | 1.1 to 4.9 µM | 1.1 to 4 µM
0.15 to 15 µM | 0.251 to 15.8 µM | 2.4 to 5.4 µM | CN(C)c1ccc(NC(=O)N2CCc3nc(C(=O)Nc4ccccc4N)sc3C2)cc1 [Example 2, N^2-(2-aminophenyl)-N5-[4-(dimethylamino)phenyl]-6,7-dihydro[1,3]thiazolo[5,4-c]pyridine-2,5(4H)-dicarboxamide] | 1.1 to 4.9 µM | 1.1 to 4 µM
0.15 to 15 µM | 0.251 to 15.8 µM | 2.4 to 5.4 µM | Nc1ccccc1NC(=O)c1nc2c(s1)CN(C(=O)Nc1cnc3ccccc3c1)CC2 [Example 12, N^2-(2-aminophenyl)-N5-quinolin-3-yl-6,7-dihydro[1,3]thiazolo[5,4-c]pyridine-2,5(4H)-dicarboxamide] | 1.1 to 4.9 µM | 1.1 to 4 µM
0.15 to 15 µM | 0.251 to 15.8 µM | 2.4 to 5.4 µM | COc1ccc(NC(=O)N2CCc3nc(C(=O)Nc4ccccc4N)sc3C2)cc1 [Example 3, N^2-(2-aminophenyl)-N5-(4-methoxyphenyl)-6,7-dihydro[1,3]thiazolo[5,4-c]pyridine-2,5(4H)-dicarboxamide] | 1.1 to 4.9 µM | 1.1 to 4 µM
